In ChEMBL document CHEMBL3526061, “Glucuronidation of edaravone by human liver and kidney microsomes: biphasic kinetics and identification of UGT1A9 as the major UDP-glucuronosyltransferase isoform” (Drug Metab Dispos, 2012):

How the values were obtained:
Type in all cases: ADME
[1] = target: T1, UDP-glucuronosyltransferase 2B17 (Homo sapiens, UniProt O75795); assay: Activity of human recombinant UGT2B17 expressed in insect cells assessed as intrinsic clearance for enzyme mediated glucuronidation per mg protein by LC-MS/MS method
T1 sequence (O75795 whole entry): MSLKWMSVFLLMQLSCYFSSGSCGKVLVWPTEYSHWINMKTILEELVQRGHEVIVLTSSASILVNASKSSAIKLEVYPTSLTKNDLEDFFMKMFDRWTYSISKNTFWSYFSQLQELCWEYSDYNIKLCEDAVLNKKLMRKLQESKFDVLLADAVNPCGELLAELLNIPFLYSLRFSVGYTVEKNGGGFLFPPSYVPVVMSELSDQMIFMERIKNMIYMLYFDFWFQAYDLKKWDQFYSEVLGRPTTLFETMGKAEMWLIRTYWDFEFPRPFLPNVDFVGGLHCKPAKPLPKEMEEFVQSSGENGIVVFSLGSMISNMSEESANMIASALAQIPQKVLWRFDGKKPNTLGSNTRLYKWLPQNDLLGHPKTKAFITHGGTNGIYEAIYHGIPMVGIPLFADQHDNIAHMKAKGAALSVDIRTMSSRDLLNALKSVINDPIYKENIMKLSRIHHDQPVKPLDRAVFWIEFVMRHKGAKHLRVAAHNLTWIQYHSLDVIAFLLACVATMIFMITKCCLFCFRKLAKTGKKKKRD

[2] = target: T2, UDP-glucuronosyltransferase 1A7 (Homo sapiens, UniProt Q9HAW7); assay: Activity of human recombinant UGT1A7 expressed in insect cells assessed as intrinsic clearance for enzyme mediated glucuronidation per mg protein by LC-MS/MS method
T2 sequence (Q9HAW7 whole entry): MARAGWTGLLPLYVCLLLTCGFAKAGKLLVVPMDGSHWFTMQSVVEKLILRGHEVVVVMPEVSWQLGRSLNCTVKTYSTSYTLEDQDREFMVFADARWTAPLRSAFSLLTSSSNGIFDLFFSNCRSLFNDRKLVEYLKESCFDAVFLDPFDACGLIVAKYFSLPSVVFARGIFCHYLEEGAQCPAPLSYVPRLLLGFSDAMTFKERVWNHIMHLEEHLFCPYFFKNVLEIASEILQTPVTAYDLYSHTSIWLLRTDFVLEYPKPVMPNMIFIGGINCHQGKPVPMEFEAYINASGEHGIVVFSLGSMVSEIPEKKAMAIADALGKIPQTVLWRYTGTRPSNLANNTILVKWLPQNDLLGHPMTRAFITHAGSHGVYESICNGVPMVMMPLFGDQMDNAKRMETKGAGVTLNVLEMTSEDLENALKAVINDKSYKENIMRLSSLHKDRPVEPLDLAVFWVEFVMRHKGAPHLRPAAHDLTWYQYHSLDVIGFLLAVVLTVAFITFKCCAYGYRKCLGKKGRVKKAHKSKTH

[3] = Drug metabolism in human kidney microsomes assessed as drug glucuronidation per mg tissue in presence of BSA by LC-MS/MS method
Liver microsome [4] = assay: Drug metabolism in human liver microsomes assessed as intrinsic clearance for drug glucuronidation per mg tissue in absence of BSA by LC-MS/MS method
Liver microsome [5] = assay: Drug metabolism in human liver microsomes assessed as drug glucuronidation in presence of 50 estradiol by LC-MS/MS method
[6] = target: T3, UDP-glucuronosyltransferase 1A8 (Homo sapiens, UniProt Q9HAW9); assay: Activity of human recombinant UGT1A8 expressed in insect cells assessed as enzyme mediated glucuronidation at 500 uM by LC-MS/MS method
T3 sequence (Q9HAW9 whole entry): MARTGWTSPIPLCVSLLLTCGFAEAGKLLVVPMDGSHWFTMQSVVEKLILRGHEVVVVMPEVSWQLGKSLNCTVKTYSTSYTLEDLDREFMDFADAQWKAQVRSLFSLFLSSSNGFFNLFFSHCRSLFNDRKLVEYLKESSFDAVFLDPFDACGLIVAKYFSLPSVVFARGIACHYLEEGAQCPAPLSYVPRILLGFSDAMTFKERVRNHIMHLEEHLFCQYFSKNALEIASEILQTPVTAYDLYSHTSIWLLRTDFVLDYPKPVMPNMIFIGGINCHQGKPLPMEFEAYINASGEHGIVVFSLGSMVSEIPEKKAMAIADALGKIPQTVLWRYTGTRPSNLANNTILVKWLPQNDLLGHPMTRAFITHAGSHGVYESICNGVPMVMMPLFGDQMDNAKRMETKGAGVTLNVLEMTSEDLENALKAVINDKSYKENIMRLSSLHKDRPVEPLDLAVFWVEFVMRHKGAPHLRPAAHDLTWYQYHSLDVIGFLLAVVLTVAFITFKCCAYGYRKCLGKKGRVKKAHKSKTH

[7] = target: T4, UDP-glucuronosyltransferase 1A6 (Homo sapiens, UniProt P19224); assay: Activity of human recombinant UGT1A6 expressed in insect cells assessed as enzyme mediated glucuronidation at 500 uM by LC-MS/MS method
T4 sequence (P19224 whole entry): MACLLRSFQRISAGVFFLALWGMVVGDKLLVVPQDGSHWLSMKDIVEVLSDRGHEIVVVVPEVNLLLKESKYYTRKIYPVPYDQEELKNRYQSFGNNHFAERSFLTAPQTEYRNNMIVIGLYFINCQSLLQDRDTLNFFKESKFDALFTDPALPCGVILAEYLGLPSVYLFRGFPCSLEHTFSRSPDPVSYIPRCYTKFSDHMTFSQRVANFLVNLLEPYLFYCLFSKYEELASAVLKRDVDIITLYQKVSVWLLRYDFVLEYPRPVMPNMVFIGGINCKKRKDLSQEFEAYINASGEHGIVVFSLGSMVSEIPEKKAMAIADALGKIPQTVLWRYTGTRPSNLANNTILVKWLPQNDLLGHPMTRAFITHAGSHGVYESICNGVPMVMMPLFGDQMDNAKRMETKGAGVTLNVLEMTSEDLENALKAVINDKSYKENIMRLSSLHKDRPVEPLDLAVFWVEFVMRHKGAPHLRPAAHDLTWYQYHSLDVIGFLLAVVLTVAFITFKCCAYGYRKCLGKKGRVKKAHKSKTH

Liver microsome [8] = assay: Drug metabolism in human liver microsomes assessed as intrinsic clearance for drug glucuronidation per mg tissue in presence of BSA by LC-MS/MS method
Liver microsome [9] = assay: Drug metabolism in human liver microsomes assessed as drug glucuronidation in presence of 100 to 1000 uM propofol by LC-MS/MS method

CL [1]: 3.3 µL/min/g
CL [2]: 1.7 µL/min/g
VmaxH [3]: 696 pmol/min/g
VmaxL [3]: 5265 pmol/min/g
CLHH (Liver microsome [4]): 8.4 µL/min/g
CLHL (Liver microsome [4]): 1.3 µL/min/mg
Drug metabolism (Liver microsome [5]): metabolite_not_detected
Drug metabolism [6]: metabolite_detected
Drug metabolism [7]: metabolite_detected
CLHH (Liver microsome [8]): 16.4 µL/min/g
CLHL (Liver microsome [8]): 3.7 µL/min/mg
Drug metabolism (Liver microsome [9]): metabolite_not_detected
Compound: CC1=NN(c2ccccc2)C(=O)C1 [EDARAVONE]
